Data published in ChEMBL document CHEMBL3867487, “Discovery of 2'-α-C-Methyl-2'-β-C-fluorouridine Phosphoramidate Prodrugs as Inhibitors of Hepatitis C Virus” (ACS Med Chem Lett, 2016).

Experiments:
Hepatitis C virus [1] = assay: Antiviral activity against HCV infected in human Huh7 cells assessed as reduction in viral RNA replication after 4 days; assay type: functional, cell-based, Hepacivirus hominis; conditions: Huh-7, 96 h
[2] = Cytotoxicity against human Huh7.5.1 cells after 48 hrs by luciferase reporter gene assay; assay type: toxicity, cell-based, Huh-7
Hepatitis C virus [3] = assay: Antiviral activity against HCV JFH-1 infected in human HuH7.5.1 cells after 48 hrs by luciferase reporter gene assay; assay type: functional, cell-based, Hepacivirus hominis; conditions: genotype 2a JFH-1, Huh-7, 48 h

| Compound | EC50 (Hepatitis C virus [1]) [µM] | CC50 at 48 h [2] [µM] | EC50 (Hepatitis C virus [3]) [µM] | EC90 (Hepatitis C virus [1]) [µM] |
| --- | --- | --- | --- | --- |
| C[C@@]1(F)[C@H](O)[C@@H](CO)O[C@H]1n1ccc(N)nc1=O | 4.5 | – | – | – |
| CC(C)OC(=O)[C@@H](Cc1ccccc1)NP(=O)(OC[C@H]1O[C@@H](n2ccc(=O)[nH]c2=O)[C@@](C)(F)[C@@H]1O)Oc1ccccc1 (some centres undefined) | – | > 100 | 35.3 | – |
| CC(C)OC(=O)[C@@H](NP(=O)(OC[C@H]1O[C@@H](n2ccc(=O)[nH]c2=O)[C@@](C)(F)[C@@H]1O)Oc1ccccc1)C(C)C (some centres undefined) | – | > 100 | > 50 | – |
| CC(C)OC(=O)[C@H](C)NP(=O)(OC[C@H]1O[C@@H](n2ccc(=O)[nH]c2=O)[C@@](C)(F)[C@@H]1O)Oc1ccccc1 (some centres undefined) | – | > 100 | 34.2 | – |
| CC(C)OC(=O)CNP(=O)(OC[C@H]1O[C@@H](n2ccc(=O)[nH]c2=O)[C@@](C)(F)[C@@H]1O)Oc1ccccc1 (some centres undefined) | – | > 100 | 22.9 | – |
| CSCC[C@H](NP(=O)(OC[C@H]1O[C@@H](n2ccc(=O)[nH]c2=O)[C@@](C)(F)[C@@H]1O)Oc1ccccc1)C(=O)OC(C)C (some centres undefined) | – | > 100 | 2.24 | – |
| CC(C)OC(=O)[C@H](Cc1c[nH]c2ccccc12)NP(=O)(OC[C@H]1O[C@@H](n2ccc(=O)[nH]c2=O)[C@@](C)(F)[C@@H]1O)Oc1ccccc1 (some centres undefined) | – | > 100 | > 50 | – |
| CC(C)OC(=O)[C@H](Cc1ccccc1)NP(=O)(OC[C@H]1O[C@@H](n2ccc(=O)[nH]c2=O)[C@@](C)(F)[C@@H]1O)Oc1ccccc1 (some centres undefined) | – | > 100 | 33.3 | – |
| CCCCOC(=O)[C@H](C)NP(=O)(OC[C@H]1O[C@@H](n2ccc(=O)[nH]c2=O)[C@@](C)(F)[C@@H]1O)Oc1ccccc1 (some centres undefined) | – | > 100 | > 50 | – |
| CSCC[C@@H](NP(=O)(OC[C@H]1O[C@@H](n2ccc(=O)[nH]c2=O)[C@@](C)(F)[C@@H]1O)Oc1ccccc1)C(=O)OC(C)C (some centres undefined) | – | > 100 | > 50 | – |
| C[C@]1(F)[C@H](O)[C@@H](CO)O[C@H]1n1ccc(=O)[nH]c1=O | – | > 100 | 14.7 | – |
| CC(C)OC(=O)[C@@H](Cc1c[nH]c2ccccc12)NP(=O)(OC[C@H]1O[C@@H](n2ccc(=O)[nH]c2=O)[C@@](C)(F)[C@@H]1O)Oc1ccccc1 (some centres undefined) | – | > 100 | 0.88 | – |
| C[C@H](NP(=O)(OC[C@H]1O[C@@H](n2ccc(=O)[nH]c2=O)[C@@](C)(F)[C@@H]1O)Oc1ccccc1)C(=O)OCc1ccccc1 (some centres undefined) | – | > 100 | > 50 | – |
| CCOC(=O)[C@H](C)NP(=O)(OC[C@H]1O[C@@H](n2ccc(=O)[nH]c2=O)[C@@](C)(F)[C@@H]1O)Oc1ccccc1 (some centres undefined) | – | > 100 | > 50 | – |
| CCCCCOC(=O)[C@H](C)NP(=O)(OC[C@H]1O[C@@H](n2ccc(=O)[nH]c2=O)[C@@](C)(F)[C@@H]1O)Oc1ccccc1 (some centres undefined) | – | > 100 | > 50 | – |
| CCCCCCOC(=O)[C@H](C)NP(=O)(OC[C@H]1O[C@@H](n2ccc(=O)[nH]c2=O)[C@@](C)(F)[C@@H]1O)Oc1ccccc1 (some centres undefined) | – | > 100 | > 50 | – |
| CC(C)OC(=O)[C@H](NP(=O)(OC[C@H]1O[C@@H](n2ccc(=O)[nH]c2=O)[C@@](C)(F)[C@@H]1O)Oc1ccccc1)C(C)C (some centres undefined) | – | > 100 | 1.82 | – |
| COC(=O)[C@H](C)NP(=O)(OC[C@H]1O[C@@H](n2ccc(=O)[nH]c2=O)[C@@](C)(F)[C@@H]1O)Oc1ccccc1 (some centres undefined) | – | > 100 | > 50 | – |
| CC(C)OC(=O)[C@@H](C)NP(=O)(OC[C@H]1O[C@@H](n2ccc(=O)[nH]c2=O)[C@@](C)(F)[C@@H]1O)Oc1ccccc1 (some centres undefined) | – | > 100 | 34.3 | – |
| C[C@H](NP(=O)(OC[C@H]1O[C@@H](n2ccc(=O)[nH]c2=O)[C@@](C)(F)[C@@H]1O)Oc1ccccc1)C(=O)OC1CCCCC1 (some centres undefined) | – | > 100 | > 50 | – |
| CCCOC(=O)[C@H](C)NP(=O)(OC[C@H]1O[C@@H](n2ccc(=O)[nH]c2=O)[C@@](C)(F)[C@@H]1O)Oc1ccccc1 (some centres undefined) | – | > 100 | > 50 | – |
| CC(C)OC(=O)[C@H](C)N[P@](=O)(OC[C@H]1O[C@@H](n2ccc(=O)[nH]c2=O)[C@](C)(F)[C@@H]1O)Oc1ccccc1 [SOFOSBUVIR] | – | > 100 | 0.12 | 0.42 |
